Results: patent publication US9795652B2, “Use of endogenous antioxidant proteins in the treatment of stroke” (University of South Florida, priority 2010, dated 2017)

System: primary rat oligodendrocyte cultures
Test: LIF protection of oligodendrocytes from oxygen glucose deprivation (extracellular LDH)
Assay type: cell-based
Conditions: 24 hours OGD
Procedure: OL cell death in culture was determined using the LDH assay (Takara Bio, Inc., Madison, Wis.), since cell death is associated with LDH release through the plasma membrane. LDH is present in a large number of tissues, like the heart, liver, kidney, skeletal muscle, brain, blood cells, and lungs. Tissue breakdown releases LDH, thereby elevating circulating LDH and indicating tissue damage. Briefly, 100 μl of tissue culture media from each experimental group was added to a 96-well plate and 100 μl of LDH reagent was added to each well. Plates were incubated for 30 min at 25° C. and absorbances were read on a microplate reader at a 548 nm wavelength. The media from HUCB cell only cultures served as a control for HUCB cell death. The absorbance of HUCB cell only media, as well as the absorbance of media only, was subtracted from the total absorbance of the OL wells to eliminate background LDH activity.
An oxygen deprivation model was used to test the effect of LIF on primary rat oligodendrocyte cultures. Cells were grown in neurobasal medium containing B27 and […] glutamine prior to OGD. To simulate ischemic conditions, the neurobasal medium was replaced with DMEM containing no glucose (OGD). The cells were then exposed to 1% O2, 5% CO2 and 94% N2 for 24 hours. No LIF (OGD) or LIF was added to the cells, at the concentrations indicated. […]

leukemia inhibitory factor [LIF]
extracellular LDH levels compared to untreated (OGD) (LIF 100 pg): about 47.6%
extracellular LDH compared to untreated cells (LIF 50 ng): approximately 2.7%
